From US20100196275A1, “Methods and products for neutralizing the harmful effects of combustion products” (priority 2006, published 2010)
“Also recorded” adds a separate entry of the source.

Assays:
[1] = system: nucleotide excision repair (NER); conditions: previously found, earlier publications; cited from earlier work
supF gene = test: supF shuttle vector pSP189 mutation assay in NHLF; type: cell-based, human; design: dose or concentration left out as unconfirmed; conditions: pSP189 modified with Acr, replicated in NHLF
Procedure: Determination of Mutations Induced by Acr-DNA Adducts. The methods used for mutation detection and for mutational spectrum determination were the same as previously described (Feng, Z., Hu, W., Amin, S., & Tang, M.-s. (2003) Biochemistry 42, 7848-7854). Briefly, shuttle vector pSP189 plasmid DNA was modified with different concentrations of Acr, and transfected into NHLF for replication. Plasmids were recovered 72 h after transfection, and replicated plasmids were then transformed into MB7070 E. coli indicator cells. The supF gene in plasmids isolated from mutant white colonies were then sequenced.

[2] = system: nucleotide excision repair (NER); test: In vitro DNA damage-specific repair synthesis assay; type: biochemical, human
Procedure: (§1) Determination of the Effect of Acr Treatment on DNA Repair. Host cell reactivation (HCR) and in vitro DNA repair synthesis assays were performed as previously described to determine the effects of Acr treatment on DNA repair in human cells (Feng, Z., Hu, W., & Tang, M.-s. (2004) Proc. Nat. Acad. Sci. 101, 8598-8602; Feng, Z., Hu, W., Marnett, L., & Tang, M.-s. Mutat. Res. in press).

[3] = system: nucleotide excision repair (NER); test: Host cell reactivation (HCR) assay; type: cell-based, human; conditions: NHLF treated with Acr for 1 h, BPDE-modified luciferase plasmid
Procedure: as §1

[4] = rats; cited from earlier work

SMILES	effect on cellular NER capacity [1]	G to T transversions among base substitution mutants sequenced (supF gene)	mutation frequency (supF gene)	share of G to T transversions among base substitutions (supF gene)	inhibitory effect, cell lysates directly treated versus whole cells treated ([2]; NHLF)	effect on repair of BPDE-DNA adducts (NER capacity) ([2]; NHLF cell extracts, BPDE-modified pUC18)	effect on repair of BPDE-DNA adducts (NER capacity) [3]	bladder tumour occurrence [4]
CCCCCC(O)/C=C/C=O (stereo not drawn) [4-HNE]	greatly reduce cellular nucleotide excision repair (NER) capacity	–	–	–	–	–	–	–
C=CC=O [Acr, Acrolein]	–	28 out of 55	120×10^−4	more than 50%	much more pronounced in cell lysates directly treated with Acr than whole cells treated with Acr	greatly inhibit NER for BPDE-induced DNA damage	greatly inhibit NER for BPDE-induced DNA damage	greatly enhances urinary bladder papilloma occurrence in rats; also recorded: cause bladder cancer in rats
O=CCC=O [MDA]	greatly reduce cellular nucleotide excision repair (NER) capacity	–	–	–	–	–	–	–
